Experimental data as given in patent US6525059B1, “Substituted pyrazoles as p38 kinase inhibitors” (G. D. Searle & Company, priority 1998, dated 2003).

Target: T1, human p38 kinase alpha (Homo sapiens, UniProt Q16539)
T1 construct: The coding region of the human p38a cDNA was obtained by PCR-amplification from RNA isolated from the human monocyte cell line THP.1; GST (N); made in house; host or cells: E. coli DH10B
Assay: p38 kinase in vitro assay, phosphorylation of biotinylated PHAS-I with gamma 32P-ATP
Format: biochemical
Conditions: @ 1.0 uM; read-out: P38 alpha kinase % inhib @ conc.
Experimental: The ability of compounds to inhibit human p38 kinase alpha was evaluated using two in vitro assay methods. In the first method activated human p38 kinase alpha phosphorylates a biotinylated substrate, PHAS-I (phosphorylated heat and acid stable protein-insulin inducible), in the presence of gamma ^32P-ATP (^32P-ATP). PHAS-I was biotinylated prior to the assay and provides a means of capturing the substrate which is phosphorylated during the assay. p38 Kinase was activated by MKK6. Compounds were tested in 10 fold serial dilutions over the range of 100 μM to 0.001 μM using 1% DMSO. Each concentration of inhibitor was tested in triplicate.
All reactions were carried out in 96 well polypropylene plates. Each reaction well contained 25 mM HEPES pH 7.5, 10 mM magnesium acetate and 50 μM unlabeled ATP. […] The reaction proceeded either for one hour or overnight at 30° C.
Following incubation, 20 μl of reaction mixture was transferred to a high capacity streptavidin coated filter plate (SAM-streptavidin-matrix, Promega) prewetted with phosphate buffered saline. […] Filter plates were air dried and 20 μl of scintillant was added. The plates were sealed and counted.

T1 sequence (Q16539 whole entry): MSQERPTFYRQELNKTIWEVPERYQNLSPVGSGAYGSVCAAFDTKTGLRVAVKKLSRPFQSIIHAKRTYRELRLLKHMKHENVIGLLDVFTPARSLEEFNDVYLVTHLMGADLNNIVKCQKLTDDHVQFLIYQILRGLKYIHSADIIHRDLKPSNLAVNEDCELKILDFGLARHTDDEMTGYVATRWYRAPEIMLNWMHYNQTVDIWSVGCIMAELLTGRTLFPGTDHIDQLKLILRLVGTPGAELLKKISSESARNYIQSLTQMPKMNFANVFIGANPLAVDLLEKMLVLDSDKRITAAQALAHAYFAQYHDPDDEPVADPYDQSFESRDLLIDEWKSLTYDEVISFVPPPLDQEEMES

Row | inhibition at 1 µM [%] | SMILES
1 | 40 | COc1ccc(NC(=O)NCc2[nH]nc(-c3ccc(F)cc3)c2-c2ccncc2)c(OC)c1 [Example B-0167]
2 | 43 | C=CCNC(=O)NCc1[nH]nc(-c2ccc(F)cc2)c1-c1ccncc1 [Example B-0170]
3 | 50 | C[C@@H](NC(=O)NCc1[nH]nc(-c2ccc(F)cc2)c1-c1ccncc1)c1ccccc1 [Example B-0176]

Same assay, conditions: @ 10.0 uM; read-out: P38 alpha kinase % inhib @ conc.

Row | inhibition at 10 µM [%] | SMILES
4 | 58 | COC(=O)c1ccccc1NC(=O)NCc1[nH]nc(-c2ccc(F)cc2)c1-c1ccncc1 [Example B-0158]
5 | 59 | COc1cccc(NC(=O)NCc2[nH]nc(-c3ccc(F)cc3)c2-c2ccncc2)c1 [Example B-0160]
6 | 70 | CCOC(=O)C(C)NC(=O)NCc1[nH]nc(-c2ccc(F)cc2)c1-c1ccncc1 (stereo not drawn) [Example B-0165]
7 | 45 | COc1ccccc1NC(=O)NCc1[nH]nc(-c2ccc(F)cc2)c1-c1ccncc1 [Example B-0166]
8 | 33 | O=C(NCc1[nH]nc(-c2ccc(F)cc2)c1-c1ccncc1)Nc1ccc(Cl)c(Cl)c1 [Example B-0173]
9 | 54 | O=C(NCc1[nH]nc(-c2ccc(F)cc2)c1-c1ccncc1)Nc1ccc(F)cc1 [Example B-0174]
10 | 12 | CC(C)c1ccc(NC(=O)NCc2[nH]nc(-c3ccc(F)cc3)c2-c2ccncc2)cc1 [Example B-0178]
11 | 27 | CC(C)c1ccccc1NC(=O)NCc1[nH]nc(-c2ccc(F)cc2)c1-c1ccncc1 [Example B-0179]
12 | 34 | O=C(NCc1[nH]nc(-c2ccc(F)cc2)c1-c1ccncc1)Nc1ccc(-c2ccccc2)cc1 [Example B-0180]
13 | 12 | O=C(NCc1[nH]nc(-c2ccc(F)cc2)c1-c1ccncc1)Nc1cc(Cl)ccc1Cl [Example B-0183]
14 | 66 | CC(NC(=O)NCc1[nH]nc(-c2ccc(F)cc2)c1-c1ccncc1)c1cccc2ccccc12 (stereo not drawn) [Example B-0184]
15 | 70 | CCOC(=O)C(NC(=O)NCc1[nH]nc(-c2ccc(F)cc2)c1-c1ccncc1)C(C)C (stereo not drawn) [Example B-0188]
16 | 12 | O=C(NCc1[nH]nc(-c2ccc(F)cc2)c1-c1ccncc1)Nc1cccc(Cl)c1Cl [Example B-0192]

Same assay, conditions: read-out: P38 alpha kinase IC50

Row | SMILES | IC50 [nM]
17 | CC(C)(C)C(=O)NCc1[nH]nc(-c2ccc(F)cc2)c1-c1ccncc1 [Example B-0201] | 290
18 | CC1(C)C2CCC1(CS(=O)(=O)NCc1[nH]nc(-c3ccc(F)cc3)c1-c1ccncc1)C(=O)C2 (stereo not drawn) [Example B-0226] | 74
19 | CC1(C)C2CCC1(CS(=O)(=O)NCc1[nH]nc(-c3ccc(F)cc3)c1-c1ccncc1)C(=O)C2 (stereo not drawn) [Example B-0227] | 45
20 | O=S(=O)(NCc1[nH]nc(-c2ccc(F)cc2)c1-c1ccncc1)c1cc(Cl)ccc1Cl [Example B-0229] | < 100
21 | O=S(=O)(NCc1[nH]nc(-c2ccc(F)cc2)c1-c1ccncc1)c1cccc(Cl)c1 [Example B-0239] | 5730
22 | Cc1cccc(Cl)c1S(=O)(=O)NCc1[nH]nc(-c2ccc(F)cc2)c1-c1ccncc1 [Example B-0243] | 39
23 | Cc1ccc(C)c(S(=O)(=O)NCc2[nH]nc(-c3ccc(F)cc3)c2-c2ccncc2)c1 [Example B-0244] | 20
24 | COc1ccc(Cl)cc1S(=O)(=O)NCc1[nH]nc(-c2ccc(F)cc2)c1-c1ccncc1 [Example B-0253] | 61
25 | N#Cc1ccc(S(=O)(=O)NCc2[nH]nc(-c3ccc(F)cc3)c2-c2ccncc2)cc1 [Example B-0254] | 120
26 | Cc1cc(C)c(C(=O)NCc2[nH]nc(-c3ccc(F)cc3)c2-c2ccncc2)c(C)c1 [Example B-0280] | 860
27 | O=C(NCc1[nH]nc(-c2ccc(F)cc2)c1-c1ccncc1)c1ccc(C(F)(F)F)cc1F [Example B-0283] | 6660
28 | Cc1cccc(C(=O)NCc2[nH]nc(-c3ccc(F)cc3)c2-c2ccncc2)c1 [Example B-0290] | 660
29 | O=C(NCc1[nH]nc(-c2ccc(F)cc2)c1-c1ccncc1)c1cccc(F)c1 [Example B-0292] | 220
30 | O=C(NCc1[nH]nc(-c2ccc(F)cc2)c1-c1ccncc1)c1cccc(F)c1F [Example B-0293] | 660
31 | O=C(NCc1[nH]nc(-c2ccc(F)cc2)c1-c1ccncc1)c1cc(F)ccc1F [Example B-0295] | 820
32 | O=C(NCc1[nH]nc(-c2ccc(F)cc2)c1-c1ccncc1)c1ccccc1F [Example B-0297] | 780
33 | CC(=O)OCC(=O)N[C@H](C)c1[nH]nc(-c2ccc(F)cc2)c1-c1ccncc1 [Example B-0353] | 1370
34 | CC(=O)N[C@H](C)c1[nH]nc(-c2ccc(F)cc2)c1-c1ccncc1 [Example B-0359] | 450
35 | C[C@@H](NC(=O)C1CC1)c1[nH]nc(-c2ccc(F)cc2)c1-c1ccncc1 [Example B-0361] | 330
36 | COCC(=O)N[C@H](C)c1[nH]nc(-c2ccc(F)cc2)c1-c1ccncc1 [Example B-0366] | 700
37 | C[C@@H](NC(=O)c1ccc(F)c(F)c1F)c1[nH]nc(-c2ccc(F)cc2)c1-c1ccncc1 [Example B-0369] | 160

Results, then the compound that gave them:

Row | IC50 [nM] | SMILES
38 | 490 | COc1ccc(CC(=O)N[C@H](C)c2[nH]nc(-c3ccc(F)cc3)c2-c2ccncc2)cc1OC [Example B-0371]
39 | 1100 | C[C@@H](NC(=O)c1ccncc1)c1[nH]nc(-c2ccc(F)cc2)c1-c1ccncc1 [Example B-0378]
40 | 1410 | COc1cccc(C(=O)N[C@H](C)c2[nH]nc(-c3ccc(F)cc3)c2-c2ccncc2)c1 [Example B-0380]
41 | 220 | CC(Oc1ccccc1)C(=O)N[C@H](C)c1[nH]nc(-c2ccc(F)cc2)c1-c1ccncc1 (stereo partly drawn) [Example B-0381]
42 | 4020 | C[C@@H](NC(=O)c1cnc2ccccc2n1)c1[nH]nc(-c2ccc(F)cc2)c1-c1ccncc1 [Example B-0384]
43 | 43 | CCCS(=O)(=O)N[C@H](C)c1[nH]nc(-c2ccc(F)cc2)c1-c1ccncc1 [Example B-0393]
44 | 170 | COc1ccc(S(=O)(=O)N[C@H](C)c2[nH]nc(-c3ccc(F)cc3)c2-c2ccncc2)cc1 [Example B-0397]
45 | 54 | C[C@@H](NS(=O)(=O)c1cccs1)c1[nH]nc(-c2ccc(F)cc2)c1-c1ccncc1 [Example B-0398]
46 | 380 | C[C@@H](NC(=O)Nc1ccccc1F)c1[nH]nc(-c2ccc(F)cc2)c1-c1ccncc1 [Example B-0410]
47 | 320 | C[C@@H](NC(=O)NCCc1ccccc1)c1[nH]nc(-c2ccc(F)cc2)c1-c1ccncc1 [Example B-0416]
48 | 910 | C[C@@H](NC(=O)N[C@H](C)c1[nH]nc(-c2ccc(F)cc2)c1-c1ccncc1)c1ccccc1 [Example B-0417]
49 | 850 | COc1ccc(NC(=O)N[C@H](C)c2[nH]nc(-c3ccc(F)cc3)c2-c2ccncc2)cc1 [Example B-0419]
50 | 460 | CCNC(=O)N[C@H](C)c1[nH]nc(-c2ccc(F)cc2)c1-c1ccncc1 [Example B-0421]
51 | 290 | CC(=O)Nc1nc(C)c(S(=O)(=O)N[C@H](C)c2[nH]nc(-c3ccc(F)cc3)c2-c2ccncc2)s1 [Example B-0430]
52 | 300 | CC(NS(=O)(=O)CC12CCC(CC1=O)C2(C)C)c1[nH]nc(-c2ccc(F)cc2)c1-c1ccncc1 (stereo not drawn) [Example B-0435]
53 | < 100 | C[C@@H](NS(=O)(=O)c1cc(Cl)ccc1Cl)c1[nH]nc(-c2ccc(F)cc2)c1-c1ccncc1 [Example B-0438]
54 | 1010 | C[C@@H](NS(=O)(=O)c1cccc2c(N(C)C)cccc12)c1[nH]nc(-c2ccc(F)cc2)c1-c1ccncc1 [Example B-0444]
55 | 400 | C[C@@H](NS(=O)(=O)c1ccc(Cl)cc1Cl)c1[nH]nc(-c2ccc(F)cc2)c1-c1ccncc1 [Example B-0448]
56 | 99 | CC(NS(=O)(=O)c1ccc(C(F)(F)F)cc1)c1[nH]nc(-c2ccc(F)cc2)c1-c1ccncc1 (stereo not drawn) [Example B-0459]
57 | 61 | CCc1ccc(S(=O)(=O)N[C@H](C)c2[nH]nc(-c3ccc(F)cc3)c2-c2ccncc2)cc1 [Example B-0460]
58 | 4 | C[C@@H](NS(=O)(=O)c1ccc(Cl)s1)c1[nH]nc(-c2ccc(F)cc2)c1-c1ccncc1 [Example B-0473]
59 | 560 | Cc1noc(C)c1S(=O)(=O)N[C@H](C)c1[nH]nc(-c2ccc(F)cc2)c1-c1ccncc1 [Example B-0476]
60 | 280 | C[C@@H](NS(=O)(=O)c1cc(S(=O)(=O)c2ccccc2)cs1)c1[nH]nc(-c2ccc(F)cc2)c1-c1ccncc1 [Example B-0484]
61 | 40 | C[C@@H](NS(=O)(=O)c1ccc(-c2ccon2)s1)c1[nH]nc(-c2ccc(F)cc2)c1-c1ccncc1 [Example B-0485]
62 | 430 | Cc1ccc(S(C)(=O)=O)cc1S(=O)(=O)N[C@H](C)c1[nH]nc(-c2ccc(F)cc2)c1-c1ccncc1 [Example B-0491]
63 | 49 | C[C@@H](NC(=O)c1ccc(F)c(F)c1)c1[nH]nc(-c2ccc(F)cc2)c1-c1ccncc1 [Example B-0501]
64 | 280 | Cc1cc(C)c(C(=O)N[C@H](C)c2[nH]nc(-c3ccc(F)cc3)c2-c2ccncc2)c(C)c1 [Example B-0505]
65 | 690 | C[C@@H](NC(=O)c1cccc(C(F)(F)F)c1F)c1[nH]nc(-c2ccc(F)cc2)c1-c1ccncc1 [Example B-0510]
66 | 1000 | C[C@@H](NC(=O)c1ccc(F)c(C(F)(F)F)c1)c1[nH]nc(-c2ccc(F)cc2)c1-c1ccncc1 [Example B-0512]
